What was measured:
Assay in all cases: biochemical
Design in all cases: DiscoverX KinomeScan competition binding assay across human kinases; per cent of control at 10 and 100 uM
[1] = target: PAK1 (Homo sapiens, UniProt Q13153); conditions: competition binding, % of control; read-out: Percent Control (100 uM Levosimendan)
Method in brief: (§1)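 KinomeScan competition binding was run across a human kinase panel at 10 μM and 100 μM levosimendan. Results are %control = (test − positive control)/(negative control − positive control) × 100.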

[2] = target: DYRK2 (Homo sapiens, UniProt Q92630); conditions: competition binding, % of control; read-out: Percent Control (100 uM Levosimendan)
Method in brief: as §1

[3] = target: T1, RIOK3 (Homo sapiens, UniProt O14730); conditions: competition binding, % of control
T1 sequence (O14730 1-519): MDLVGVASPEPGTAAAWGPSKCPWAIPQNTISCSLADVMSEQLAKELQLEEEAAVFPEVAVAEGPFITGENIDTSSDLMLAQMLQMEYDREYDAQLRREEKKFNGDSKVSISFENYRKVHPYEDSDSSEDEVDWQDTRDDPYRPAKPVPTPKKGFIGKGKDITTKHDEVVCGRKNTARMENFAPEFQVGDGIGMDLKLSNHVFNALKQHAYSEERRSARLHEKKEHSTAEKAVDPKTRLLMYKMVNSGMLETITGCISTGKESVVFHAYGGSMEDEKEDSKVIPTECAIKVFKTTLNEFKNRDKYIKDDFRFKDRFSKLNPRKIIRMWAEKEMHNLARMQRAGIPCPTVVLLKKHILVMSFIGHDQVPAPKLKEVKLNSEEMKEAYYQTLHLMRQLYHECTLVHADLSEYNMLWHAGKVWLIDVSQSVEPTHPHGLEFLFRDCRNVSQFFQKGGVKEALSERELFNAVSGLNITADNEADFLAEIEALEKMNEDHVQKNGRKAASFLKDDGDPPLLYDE
Method in brief: as §1

[4] = target: SRMS (Homo sapiens, UniProt Q9H3Y6); conditions: competition binding, % of control; read-out: Percent Control (100 uM Levosimendan)
Method in brief: as §1

[5] = target: EGFR(L747-E749del, A750P) (Homo sapiens, UniProt P00533, A750P/DEL747-749); conditions: competition binding, % of control; read-out: Percent Control (100 uM Levosimendan)
Method in brief: as §1

[6] = target: LRRK2(G2019S) (Homo sapiens, UniProt Q5S007, G2019S); conditions: competition binding, % of control; read-out: Percent Control (100 uM Levosimendan)
Method in brief: as §1

[7] = target: BMPR1A (Homo sapiens, UniProt P36894); conditions: competition binding, % of control; read-out: Percent Control (100 uM Levosimendan)
Method in brief: as §1

[8] = target: CAMK2B (Homo sapiens, UniProt Q13554); conditions: competition binding, % of control; read-out: Percent Control (100 uM Levosimendan)
Method in brief: as §1

[9] = target: T2, PAK7 (Homo sapiens, UniProt Q9P286); conditions: competition binding, % of control; read-out: Percent Control (100 uM Levosimendan)
T2 construct: gene PAK5
Method in brief: as §1

[10] = target: SNRK (Homo sapiens, UniProt Q9NRH2); conditions: competition binding, % of control; read-out: Percent Control (100 uM Levosimendan)
Method in brief: as §1

[11] = target: SRC (Homo sapiens, UniProt P12931); conditions: competition binding, % of control
Method in brief: as §1

[12] = target: STK16 (Homo sapiens, UniProt O75716); conditions: competition binding, % of control; read-out: Percent Control (100 uM Levosimendan)
Method in brief: as §1

[13] = target: T3, SGK (Homo sapiens, UniProt O00141); conditions: competition binding, % of control
T3 construct: gene SGK1
Method in brief: as §1

[14] = target: TSSK1B (Homo sapiens, UniProt Q9BXA7); conditions: competition binding, % of control; read-out: Percent Control (100 uM Levosimendan)
Method in brief: as §1

[15] = target: T4, TYK2(JH1domain-catalytic) (Homo sapiens, UniProt P29597); conditions: competition binding, % of control
T4 construct: JH1domain-catalytic
Method in brief: as §1

[16] = read-out: Percent Control (10 uM Levosimendan)
[17] = read-out: Percent Control (100 uM Levosimendan)

Sequence of SRC (P12931 whole entry): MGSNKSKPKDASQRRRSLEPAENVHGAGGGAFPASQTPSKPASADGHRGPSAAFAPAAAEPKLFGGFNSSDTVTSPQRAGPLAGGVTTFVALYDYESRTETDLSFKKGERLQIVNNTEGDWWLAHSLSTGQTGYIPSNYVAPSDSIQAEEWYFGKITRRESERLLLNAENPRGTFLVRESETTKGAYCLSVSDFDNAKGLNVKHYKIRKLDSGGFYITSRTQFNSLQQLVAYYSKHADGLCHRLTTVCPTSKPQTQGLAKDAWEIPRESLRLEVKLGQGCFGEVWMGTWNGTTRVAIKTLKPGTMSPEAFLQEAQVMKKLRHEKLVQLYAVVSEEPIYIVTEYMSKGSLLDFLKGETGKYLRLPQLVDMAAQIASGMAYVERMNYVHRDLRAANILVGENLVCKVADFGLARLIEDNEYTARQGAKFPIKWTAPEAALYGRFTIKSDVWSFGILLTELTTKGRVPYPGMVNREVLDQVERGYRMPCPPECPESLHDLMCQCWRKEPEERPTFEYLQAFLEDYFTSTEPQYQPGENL
T3 sequence (O00141 whole entry): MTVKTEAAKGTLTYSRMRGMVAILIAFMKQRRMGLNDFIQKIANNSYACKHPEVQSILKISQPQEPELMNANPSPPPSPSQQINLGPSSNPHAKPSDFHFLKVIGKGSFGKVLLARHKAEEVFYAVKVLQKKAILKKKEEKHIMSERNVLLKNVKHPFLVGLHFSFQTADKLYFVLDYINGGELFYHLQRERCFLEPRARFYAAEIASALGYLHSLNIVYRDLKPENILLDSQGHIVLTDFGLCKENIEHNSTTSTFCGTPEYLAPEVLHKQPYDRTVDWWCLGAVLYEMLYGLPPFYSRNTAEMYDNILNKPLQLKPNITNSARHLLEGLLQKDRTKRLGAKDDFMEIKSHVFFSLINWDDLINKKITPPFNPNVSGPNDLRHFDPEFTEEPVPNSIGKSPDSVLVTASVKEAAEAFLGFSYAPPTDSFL
T4 sequence (P29597 whole entry): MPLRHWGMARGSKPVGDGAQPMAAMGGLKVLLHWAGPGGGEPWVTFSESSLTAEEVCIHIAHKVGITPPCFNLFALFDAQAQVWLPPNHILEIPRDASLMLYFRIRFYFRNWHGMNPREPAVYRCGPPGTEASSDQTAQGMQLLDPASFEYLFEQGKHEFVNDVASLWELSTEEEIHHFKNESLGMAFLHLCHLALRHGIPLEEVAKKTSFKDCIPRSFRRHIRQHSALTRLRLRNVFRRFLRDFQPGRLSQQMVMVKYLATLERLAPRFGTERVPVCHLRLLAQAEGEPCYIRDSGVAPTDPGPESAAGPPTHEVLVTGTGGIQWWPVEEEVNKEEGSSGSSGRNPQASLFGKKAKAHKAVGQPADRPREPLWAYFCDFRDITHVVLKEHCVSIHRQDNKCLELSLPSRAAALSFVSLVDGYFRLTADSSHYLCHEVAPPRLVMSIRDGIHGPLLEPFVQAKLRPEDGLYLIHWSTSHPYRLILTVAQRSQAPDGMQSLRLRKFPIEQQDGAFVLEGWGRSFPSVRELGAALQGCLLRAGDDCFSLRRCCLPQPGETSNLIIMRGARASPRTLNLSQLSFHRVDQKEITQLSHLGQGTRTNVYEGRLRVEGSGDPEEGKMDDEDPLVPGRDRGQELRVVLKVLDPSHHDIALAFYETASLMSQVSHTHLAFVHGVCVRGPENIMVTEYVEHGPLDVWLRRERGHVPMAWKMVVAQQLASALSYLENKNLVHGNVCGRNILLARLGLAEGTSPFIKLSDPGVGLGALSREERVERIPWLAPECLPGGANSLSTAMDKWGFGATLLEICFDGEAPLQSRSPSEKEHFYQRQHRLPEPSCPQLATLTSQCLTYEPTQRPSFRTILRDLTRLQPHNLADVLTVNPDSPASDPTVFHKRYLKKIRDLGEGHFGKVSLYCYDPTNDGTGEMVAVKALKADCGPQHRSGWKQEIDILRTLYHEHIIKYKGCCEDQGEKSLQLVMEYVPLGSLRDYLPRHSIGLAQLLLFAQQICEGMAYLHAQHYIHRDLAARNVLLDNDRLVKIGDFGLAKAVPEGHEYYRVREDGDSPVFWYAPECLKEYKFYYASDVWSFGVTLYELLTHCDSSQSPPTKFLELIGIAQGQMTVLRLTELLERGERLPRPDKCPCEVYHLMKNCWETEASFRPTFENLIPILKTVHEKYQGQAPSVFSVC
Sequence of CAMK2B (Q13554 whole entry): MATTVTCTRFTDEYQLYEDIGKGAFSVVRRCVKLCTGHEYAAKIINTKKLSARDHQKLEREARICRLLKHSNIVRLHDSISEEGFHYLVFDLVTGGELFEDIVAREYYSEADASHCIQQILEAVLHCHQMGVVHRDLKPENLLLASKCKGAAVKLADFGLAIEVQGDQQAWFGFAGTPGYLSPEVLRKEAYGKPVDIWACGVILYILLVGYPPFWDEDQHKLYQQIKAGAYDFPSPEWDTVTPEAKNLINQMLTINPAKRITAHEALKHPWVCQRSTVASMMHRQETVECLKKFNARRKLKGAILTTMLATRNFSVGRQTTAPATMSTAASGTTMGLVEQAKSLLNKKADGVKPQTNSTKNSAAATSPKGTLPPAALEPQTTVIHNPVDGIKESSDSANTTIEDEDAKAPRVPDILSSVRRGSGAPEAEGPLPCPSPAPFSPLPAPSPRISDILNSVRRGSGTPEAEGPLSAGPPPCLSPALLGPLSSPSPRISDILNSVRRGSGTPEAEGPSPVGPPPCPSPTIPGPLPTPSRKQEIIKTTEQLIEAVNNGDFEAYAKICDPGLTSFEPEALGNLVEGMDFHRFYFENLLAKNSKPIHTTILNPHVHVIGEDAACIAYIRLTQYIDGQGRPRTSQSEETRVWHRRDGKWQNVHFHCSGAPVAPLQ
T2 sequence (Q9P286 whole entry): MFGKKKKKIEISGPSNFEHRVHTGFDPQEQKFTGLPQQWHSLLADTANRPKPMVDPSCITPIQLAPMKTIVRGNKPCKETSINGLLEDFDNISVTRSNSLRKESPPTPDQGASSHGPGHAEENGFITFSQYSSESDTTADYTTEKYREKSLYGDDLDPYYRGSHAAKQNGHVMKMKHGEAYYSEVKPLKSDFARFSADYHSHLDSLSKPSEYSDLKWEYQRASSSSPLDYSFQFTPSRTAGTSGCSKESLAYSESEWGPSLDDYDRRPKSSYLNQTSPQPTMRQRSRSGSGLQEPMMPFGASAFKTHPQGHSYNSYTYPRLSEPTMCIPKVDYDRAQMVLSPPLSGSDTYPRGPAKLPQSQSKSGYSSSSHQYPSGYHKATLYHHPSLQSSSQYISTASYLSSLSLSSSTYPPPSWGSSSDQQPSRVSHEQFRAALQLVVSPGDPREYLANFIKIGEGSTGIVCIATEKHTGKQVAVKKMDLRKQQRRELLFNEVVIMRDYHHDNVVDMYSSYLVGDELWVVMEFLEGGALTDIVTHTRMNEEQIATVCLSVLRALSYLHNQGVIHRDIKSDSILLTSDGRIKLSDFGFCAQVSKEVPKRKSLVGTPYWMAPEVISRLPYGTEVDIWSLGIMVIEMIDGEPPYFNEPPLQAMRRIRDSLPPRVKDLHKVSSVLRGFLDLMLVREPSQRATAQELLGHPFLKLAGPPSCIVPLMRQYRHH
Sequence of SNRK (Q9NRH2 whole entry): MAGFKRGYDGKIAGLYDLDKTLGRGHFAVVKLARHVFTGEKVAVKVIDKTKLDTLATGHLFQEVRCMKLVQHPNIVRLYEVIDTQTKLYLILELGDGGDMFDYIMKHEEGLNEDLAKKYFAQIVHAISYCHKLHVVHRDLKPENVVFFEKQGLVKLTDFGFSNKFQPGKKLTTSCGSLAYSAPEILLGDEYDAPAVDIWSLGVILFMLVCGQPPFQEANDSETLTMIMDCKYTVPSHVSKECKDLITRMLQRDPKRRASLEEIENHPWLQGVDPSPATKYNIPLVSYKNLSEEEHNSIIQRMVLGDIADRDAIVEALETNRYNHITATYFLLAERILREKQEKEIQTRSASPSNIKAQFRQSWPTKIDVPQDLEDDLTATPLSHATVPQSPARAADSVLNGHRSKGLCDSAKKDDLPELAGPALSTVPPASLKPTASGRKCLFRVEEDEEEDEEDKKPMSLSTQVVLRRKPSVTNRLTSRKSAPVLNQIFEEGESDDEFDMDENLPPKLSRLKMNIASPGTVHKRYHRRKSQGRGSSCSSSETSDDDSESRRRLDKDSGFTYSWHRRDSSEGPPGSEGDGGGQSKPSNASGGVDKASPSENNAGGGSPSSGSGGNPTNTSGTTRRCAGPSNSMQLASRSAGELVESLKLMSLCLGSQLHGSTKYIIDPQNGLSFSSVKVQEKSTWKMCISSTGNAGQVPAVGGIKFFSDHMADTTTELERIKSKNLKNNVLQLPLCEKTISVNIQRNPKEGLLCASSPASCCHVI
Sequence of TSSK1B (Q9BXA7 whole entry): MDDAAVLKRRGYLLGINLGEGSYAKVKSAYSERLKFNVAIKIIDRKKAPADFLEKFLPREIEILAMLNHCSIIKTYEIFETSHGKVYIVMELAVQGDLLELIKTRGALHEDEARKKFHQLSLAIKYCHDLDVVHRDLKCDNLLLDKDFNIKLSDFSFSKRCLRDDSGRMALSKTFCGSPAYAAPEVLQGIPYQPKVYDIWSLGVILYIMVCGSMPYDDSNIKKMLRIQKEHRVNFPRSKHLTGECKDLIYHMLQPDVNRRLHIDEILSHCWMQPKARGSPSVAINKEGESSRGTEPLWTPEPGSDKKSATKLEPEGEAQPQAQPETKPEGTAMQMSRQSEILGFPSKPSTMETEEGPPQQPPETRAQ
Sequence of STK16 (O75716 whole entry): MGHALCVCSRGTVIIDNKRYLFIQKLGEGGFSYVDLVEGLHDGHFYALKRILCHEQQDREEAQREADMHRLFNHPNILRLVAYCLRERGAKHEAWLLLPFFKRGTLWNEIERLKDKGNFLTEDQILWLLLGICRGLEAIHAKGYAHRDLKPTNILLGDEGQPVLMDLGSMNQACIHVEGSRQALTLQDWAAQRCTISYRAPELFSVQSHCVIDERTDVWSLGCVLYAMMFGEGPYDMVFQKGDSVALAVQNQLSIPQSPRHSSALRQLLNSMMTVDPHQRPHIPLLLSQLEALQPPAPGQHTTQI

C[C@@H]1CC(=O)NN=C1c1ccc(NN=C(C#N)C#N)cc1 [levosimendan]
remaining binding at 100 µM [1]: 73% | remaining binding at 100 µM [2]: 85% | remaining binding at 10 µM [3, 16]: 15% | remaining binding at 100 µM [3, 17]: 0% | remaining binding at 100 µM [4]: 100% | remaining binding at 100 µM [5]: 64% | remaining binding at 100 µM [6]: 100% | remaining binding at 100 µM [7]: 93% | remaining binding at 100 µM [8]: 90% | remaining binding at 100 µM [9]: 79% | remaining binding at 100 µM [10]: 100% | remaining binding at 10 µM [11, 16]: 100% | remaining binding at 100 µM [11, 17]: 42% | remaining binding at 100 µM [12]: 80% | remaining binding at 10 µM [13, 16]: 81% | remaining binding at 100 µM [13, 17]: 40% | remaining binding at 100 µM [14]: 85% | remaining binding at 10 µM [15, 16]: 85% | remaining binding at 100 µM [15, 17]: 27%

Reference: publication PMC6576746, “Rational discovery of dual-indication multi-target PDE/Kinase inhibitor for precision anti-cancer therapy using structural systems pharmacology” (PLoS Computational Biology, 2019)
